Reference: PMC8119466, “A screen of FDA-approved drugs identifies inhibitors of protein tyrosine phosphatase 4A3 (PTP4A3 or PRL-3)” (Scientific Reports, 2021)
Where a name gives a salt, the structure may show the parent alone.

How the values were obtained:
Assay type in all cases: biochemical
Settings in all cases: FDA-approved drug screen
recombinant PRL-1 = target: T1, recombinant PRL-1 (Homo sapiens, UniProt Q93096); assay: In vitro phosphatase assay (DiFMUP hydrolysis), PRL-1; note: test concentration or dose not given here
T1 construct: 6xHis (N, cleaved yes); made in house; host or cells: E. coli One Shot BL21 Star
T1 sequence (Q93096 1-173): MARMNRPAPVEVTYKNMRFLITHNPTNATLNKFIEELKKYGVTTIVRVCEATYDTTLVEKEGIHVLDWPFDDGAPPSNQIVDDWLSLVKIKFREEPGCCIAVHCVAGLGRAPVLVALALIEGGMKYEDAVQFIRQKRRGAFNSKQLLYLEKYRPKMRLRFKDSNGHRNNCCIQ

recombinant PRL-2 = target: T2, recombinant PRL-2 (Homo sapiens, UniProt Q12974); assay: In vitro phosphatase assay (DiFMUP hydrolysis), PRL-2;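 note: PRL-2 activity read as DiFMUP hydrolysis after 20 min at room temperature with drug, enzyme first pre-reduced at 4 °C for 20 min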
T2 construct: 6xHis (N, cleaved yes); made in house; host or cells: E. coli One Shot BL21 Star
T2 sequence (Q12974 1-167): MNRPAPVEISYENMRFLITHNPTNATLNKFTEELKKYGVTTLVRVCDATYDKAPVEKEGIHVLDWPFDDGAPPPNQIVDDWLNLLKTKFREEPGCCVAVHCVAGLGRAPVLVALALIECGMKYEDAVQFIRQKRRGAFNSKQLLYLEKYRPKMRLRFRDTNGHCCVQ

recombinant PRL-3 = target: T3, recombinant PRL-3 (Homo sapiens, UniProt O75365); assay: In vitro phosphatase assay (DiFMUP hydrolysis), PRL-3; note: test concentration or dose not given here
T3 construct: 6xHis (N, cleaved yes); made in house; host or cells: E. coli One Shot BL21 Star
T3 sequence (O75365 whole entry): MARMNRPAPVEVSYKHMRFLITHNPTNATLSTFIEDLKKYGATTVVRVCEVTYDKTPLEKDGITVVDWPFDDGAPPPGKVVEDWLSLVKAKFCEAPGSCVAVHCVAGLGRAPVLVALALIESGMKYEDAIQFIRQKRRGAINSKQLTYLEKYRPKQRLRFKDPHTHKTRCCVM

C[C@H]1C[C@H]2[C@@H]3CCC4=CC(=O)C=C[C@]4(C)[C@@]3(F)[C@@H](O)C[C@]2(C)[C@@]1(O)C(=O)CO [Betamethasone]
% Phosphatase Activity (compared to DMSO) PRL-1 (recombinant PRL-1; compared to DMSO): 95%
% Phosphatase Activity (compared to DMSO) PRL-2 (recombinant PRL-2; compared to DMSO): 88%
% Phosphatase Activity (compared to DMSO) PRL-3 (recombinant PRL-3; compared to DMSO): 72%

C=C1[C@H](CO)[C@@H](O)C[C@@H]1n1cnc2c(=O)[nH]c(N)nc21 [Entecavir Hydrate]
% Phosphatase Activity (compared to DMSO) PRL-1 (recombinant PRL-1; compared to DMSO): 102%
% Phosphatase Activity (compared to DMSO) PRL-2 (recombinant PRL-2; compared to DMSO): 92%
% Phosphatase Activity (compared to DMSO) PRL-3 (recombinant PRL-3; compared to DMSO): 71%

CN(C)CCc1c[nH]c2ccc(Cn3cncn3)cc12 [Rizatriptan Benzoate]
% Phosphatase Activity (compared to DMSO) PRL-1 (recombinant PRL-1; compared to DMSO): 98%
% Phosphatase Activity (compared to DMSO) PRL-2 (recombinant PRL-2; compared to DMSO): 103%
% Phosphatase Activity (compared to DMSO) PRL-3 (recombinant PRL-3; compared to DMSO): 90%

O=C1c2cccc3c2[C@H](CCC3)CN1[C@@H]1CN2CCC1CC2 [Palonosetron HCl]
% Phosphatase Activity (compared to DMSO) PRL-1 (recombinant PRL-1; compared to DMSO): 90%
% Phosphatase Activity (compared to DMSO) PRL-2 (recombinant PRL-2; compared to DMSO): 96%
% Phosphatase Activity (compared to DMSO) PRL-3 (recombinant PRL-3; compared to DMSO): 117%

CN(C)CCC(c1ccc(Br)cc1)c1ccccn1.O=C(O)/C=C\C(=O)O (stereo not drawn) [Brompheniramine hydrogen maleate]
% Phosphatase Activity (compared to DMSO) PRL-1 (recombinant PRL-1; compared to DMSO): 108%
% Phosphatase Activity (compared to DMSO) PRL-2 (recombinant PRL-2; compared to DMSO): 107%
% Phosphatase Activity (compared to DMSO) PRL-3 (recombinant PRL-3; compared to DMSO): 78%

CCC/N=C1\S/C(=C\c2ccc(OC[C@H](O)CO)c(Cl)c2)C(=O)N1c1ccccc1C [Ponesimod]
% Phosphatase Activity (compared to DMSO) PRL-1 (recombinant PRL-1; compared to DMSO): 88%
% Phosphatase Activity (compared to DMSO) PRL-2 (recombinant PRL-2; compared to DMSO): 79%
% Phosphatase Activity (compared to DMSO) PRL-3 (recombinant PRL-3; compared to DMSO): 86%

CN1CCc2nc(C(=O)N[C@@H]3C[C@@H](C(=O)N(C)C)CC[C@@H]3NC(=O)C(=O)Nc3ccc(Cl)cn3)sc2C1 [Edoxaban]
% Phosphatase Activity (compared to DMSO) PRL-1 (recombinant PRL-1; compared to DMSO): 110%
% Phosphatase Activity (compared to DMSO) PRL-2 (recombinant PRL-2; compared to DMSO): 99%
% Phosphatase Activity (compared to DMSO) PRL-3 (recombinant PRL-3; compared to DMSO): 106%

C[C@@H]1CCO[C@H]2Cn3cc(C(=O)NCc4ccc(F)cc4F)c(=O)c(O)c3C(=O)N12 [Dolutegravir (GSK1349572)]
% Phosphatase Activity (compared to DMSO) PRL-1 (recombinant PRL-1; compared to DMSO): 105%
% Phosphatase Activity (compared to DMSO) PRL-2 (recombinant PRL-2; compared to DMSO): 101%
% Phosphatase Activity (compared to DMSO) PRL-3 (recombinant PRL-3; compared to DMSO): 99%

CCCN(CCC)S(=O)(=O)c1ccc(C(=O)O)cc1 [Probenecid]
% Phosphatase Activity (compared to DMSO) PRL-1 (recombinant PRL-1; compared to DMSO): 110%
% Phosphatase Activity (compared to DMSO) PRL-2 (recombinant PRL-2; compared to DMSO): 114%
% Phosphatase Activity (compared to DMSO) PRL-3 (recombinant PRL-3; compared to DMSO): 84%

CCC1(c2cnc[nH]2)Cc2ccccc2C1.Cl [Atipamezole hydrochloride]
% Phosphatase Activity (compared to DMSO) PRL-1 (recombinant PRL-1; compared to DMSO): 98%
% Phosphatase Activity (compared to DMSO) PRL-2 (recombinant PRL-2; compared to DMSO): 106%
% Phosphatase Activity (compared to DMSO) PRL-3 (recombinant PRL-3; compared to DMSO): 88%

Cc1noc(NS(=O)(=O)c2ccc(N)cc2)c1C [Sulfisoxazole]
% Phosphatase Activity (compared to DMSO) PRL-1 (recombinant PRL-1; activity compared to DMSO): 88%
% Phosphatase Activity (compared to DMSO) PRL-2 (recombinant PRL-2; activity compared to DMSO): 95%
% Phosphatase Activity (compared to DMSO) PRL-3 (recombinant PRL-3; activity compared to DMSO): 89%

N=C(N)c1ccc(OCCCCCOc2ccc(C(=N)N)cc2)cc1 [Pentamidine]
% Phosphatase Activity (compared to DMSO) PRL-1 (recombinant PRL-1; compared to DMSO): 113%
% Phosphatase Activity (compared to DMSO) PRL-2 (recombinant PRL-2; compared to DMSO): 116%
% Phosphatase Activity (compared to DMSO) PRL-3 (recombinant PRL-3; compared to DMSO): 95%

CCOC(=O)OC(C)OC1=C(C(=O)Nc2ccccn2)N(C)S(=O)(=O)c2ccccc21 (stereo not drawn) [Ampiroxicam]
% Phosphatase Activity (compared to DMSO) PRL-1 (recombinant PRL-1; compared to DMSO): 114%
% Phosphatase Activity (compared to DMSO) PRL-2 (recombinant PRL-2; compared to DMSO): 114%
% Phosphatase Activity (compared to DMSO) PRL-3 (recombinant PRL-3; compared to DMSO): 88%

O=C(OCc1ccccc1)c1ccccc1 [Benzyl benzoate]
% Phosphatase Activity (compared to DMSO) PRL-1 (recombinant PRL-1; compared to DMSO): 83%
% Phosphatase Activity (compared to DMSO) PRL-2 (recombinant PRL-2; compared to DMSO): 75%
% Phosphatase Activity (compared to DMSO) PRL-3 (recombinant PRL-3; compared to DMSO): 77%

CO[C@@]12[C@H](COC(N)=O)C3=C(C(=O)C(C)=C(N)C3=O)N1C[C@@H]1N[C@@H]12 [Mitomycin C]
% Phosphatase Activity (compared to DMSO) PRL-1 (recombinant PRL-1; compared to DMSO): 68%
% Phosphatase Activity (compared to DMSO) PRL-2 (recombinant PRL-2; compared to DMSO): 54%
% Phosphatase Activity (compared to DMSO) PRL-3 (recombinant PRL-3; compared to DMSO): 64%

CC(C)(C)Cn1c(N)nc2ccc(-c3[nH]c(C(C)(C)C)nc3-c3ccc(F)cc3)nc21 [LY2228820]
% Phosphatase Activity (compared to DMSO) PRL-1 (recombinant PRL-1; compared to DMSO): 159%
% Phosphatase Activity (compared to DMSO) PRL-2 (recombinant PRL-2; compared to DMSO): 137%
% Phosphatase Activity (compared to DMSO) PRL-3 (recombinant PRL-3; compared to DMSO): 131%

Cc1c(OCC(F)(F)F)ccnc1C[S+]([O-])c1nc2ccccc2[nH]1 (stereo not drawn) [Lansoprazole]
% Phosphatase Activity (compared to DMSO) PRL-1 (recombinant PRL-1; compared to DMSO): 94%
% Phosphatase Activity (compared to DMSO) PRL-2 (recombinant PRL-2; compared to DMSO): 92%
% Phosphatase Activity (compared to DMSO) PRL-3 (recombinant PRL-3; compared to DMSO): 59%

COc1cc(C(=O)NC2CCCNC2)cc(OC)c1OC (stereo not drawn) [Troxipide]
% Phosphatase Activity (compared to DMSO) PRL-1 (recombinant PRL-1; activity compared to DMSO): 95%
% Phosphatase Activity (compared to DMSO) PRL-2 (recombinant PRL-2; activity compared to DMSO): 110%
% Phosphatase Activity (compared to DMSO) PRL-3 (recombinant PRL-3; activity compared to DMSO): 79%

CC1(C)O[C@@H]2[C@@H](CO[C@@]3(COS(N)(=O)=O)OC(C)(C)O[C@@H]23)O1 [Topiramate]
% Phosphatase Activity (compared to DMSO) PRL-1 (recombinant PRL-1; activity compared to DMSO): 118%
% Phosphatase Activity (compared to DMSO) PRL-2 (recombinant PRL-2; activity compared to DMSO): 122%
% Phosphatase Activity (compared to DMSO) PRL-3 (recombinant PRL-3; activity compared to DMSO): 99%

COc1cc(Nc2ncc(F)c(Nc3ccc4c(n3)N(COP(=O)([O-])[O-])C(=O)C(C)(C)O4)n2)cc(OC)c1OC.[Na+].[Na+] [R788 (Fostamatinib) Disodium]
% Phosphatase Activity (compared to DMSO) PRL-1 (recombinant PRL-1; compared to DMSO): 90%
% Phosphatase Activity (compared to DMSO) PRL-2 (recombinant PRL-2; compared to DMSO): 119%
% Phosphatase Activity (compared to DMSO) PRL-3 (recombinant PRL-3; compared to DMSO): 88%

COCCOC(=O)C1=C(C)NC(C)=C(C(=O)OC/C=C/c2ccccc2)C1c1cccc([N+](=O)[O-])c1 (stereo not drawn) [Cilnidipine]
% Phosphatase Activity (compared to DMSO) PRL-1 (recombinant PRL-1; compared to DMSO): 95%
% Phosphatase Activity (compared to DMSO) PRL-2 (recombinant PRL-2; compared to DMSO): 95%
% Phosphatase Activity (compared to DMSO) PRL-3 (recombinant PRL-3; compared to DMSO): 68%

CC(C)(O)c1ccccc1CC[C@@H](SCC1(CC(=O)O)CC1)c1cccc(/C=C/c2ccc3ccc(Cl)cc3n2)c1 [Montelukast Sodium]
% Phosphatase Activity (compared to DMSO) PRL-1 (recombinant PRL-1; compared to DMSO): 172%
% Phosphatase Activity (compared to DMSO) PRL-2 (recombinant PRL-2; compared to DMSO): 161%
% Phosphatase Activity (compared to DMSO) PRL-3 (recombinant PRL-3; compared to DMSO): 182%

Cl.Cl.Fc1ccc(C(c2ccc(F)cc2)N2CCN(C/C=C/c3ccccc3)CC2)cc1 [Flunarizine 2HCl]
% Phosphatase Activity (compared to DMSO) PRL-1 (recombinant PRL-1; compared to DMSO): 111%
% Phosphatase Activity (compared to DMSO) PRL-2 (recombinant PRL-2; compared to DMSO): 107%
% Phosphatase Activity (compared to DMSO) PRL-3 (recombinant PRL-3; compared to DMSO): 101%

CCS(=O)(=O)CCn1c([N+](=O)[O-])cnc1C [Tinidazole]
% Phosphatase Activity (compared to DMSO) PRL-1 (recombinant PRL-1; activity compared to DMSO): 107%
% Phosphatase Activity (compared to DMSO) PRL-2 (recombinant PRL-2; activity compared to DMSO): 113%
% Phosphatase Activity (compared to DMSO) PRL-3 (recombinant PRL-3; activity compared to DMSO): 84%

CCOC(=O)c1ccc(C#Cc2ccc3c(c2)C(C)(C)CCS3)nc1 [Tazarotene]
% Phosphatase Activity (compared to DMSO) PRL-1 (recombinant PRL-1; activity compared to DMSO): 1414%
% Phosphatase Activity (compared to DMSO) PRL-2 (recombinant PRL-2; activity compared to DMSO): 1439%
% Phosphatase Activity (compared to DMSO) PRL-3 (recombinant PRL-3; activity compared to DMSO): 148%

CC1=CC(=O)c2ccccc2C1=O [Menadione]
% Phosphatase Activity (compared to DMSO) PRL-1 (recombinant PRL-1; compared to DMSO): 62%
% Phosphatase Activity (compared to DMSO) PRL-2 (recombinant PRL-2; compared to DMSO): 75%
% Phosphatase Activity (compared to DMSO) PRL-3 (recombinant PRL-3; compared to DMSO): 62%
